Like-named read-outs stand apart in the source and are kept apart here.
System: mice
Assay: Haffner test ("Tail clip test") in mice
Type: in vivo, mouse (male CD mice)
Conditions: Mus musculus, read-out: ED50 (Haffner test in mice)
Text: METHOD: Haffner Test ("Tail clip test") in Mice
The Haffner test is a standard procedure for determining the pain-inhibiting effect of powerful analgesics, mostly of the opioid type, in mice. The method largely corresponds to the one described by Bianchi C. and Franceschini J. (Brit. J. Pharmacol. 9:280, 1954; Experimental observations on Haffner's method for testing analgesic drugs).
Male CD mice (from Charles River, Sulzfeld, FRG) with an average weight of 30±5 grams were used. The animals were kept under standard conditions (temperature: 22±2° C., relative humidity: 55±10%, air exchange: 15-20 times per hour and 12/12 hours light/darkness cycle). The animals had unlimited access to food and water until the test began. During the test the animals were kept singly in Makrolon Type III cages with no bedding. A 3.5 cm arterial clamp was placed about 2 cm from the base of the tail and the pain reaction time was measured in seconds. Any active attempt by the animal to remove the clamp was assessed as a pain reaction. To prevent tissue damage, the test was stopped after at most 30 seconds in every case (cut off latency). In a preliminary test, mice with a pain reaction time of less than 5 seconds (base line latency) were selected for the actual test, which was carried out at specific intervals after the administration of the drug (test latency).
Corresponding quantities of test substances were dissolved in physiological saline solution for intravenous administration or in twice distilled water for oral administration. The total volume administered was 10 ml/kg of body weight in each case. Controls were given the same solvent but with no test substance. 8-10 mice were tested in each group.
The results were plotted as individual values (seconds), mean value±scattering (seconds) per group and as the percent of the maximum possible effect (% MPE=percent of Maximum Possible Effect). [formula] Significant differences between the control and test groups were calculated by means of an unpaired, two-sided Students T-test (*2P<0.05;**2P<0.01; 2P<0.001).
The ED50 value describes the dosage at which 50% of the maximum possible effect (MPE) is achieved. The ED50 value is calculated by linear regression between the dose and the % MPE.

Compound | ED50 (iv, 10 min, i.v., 10 min.) [µmol/kg] | ED50 (iv, 0.5 h, i.v., 30 min.) [µmol/kg] | ED50 (iv, 1 h, i.v., 60 min.) [µmol/kg] | ED50 (iv, 2 h, i.v., 120 min.) [µmol/kg] | ED50 (po, 0.5 h, p.o., 30 min.) [µmol/kg] | ED50 (po, 1 h, p.o., 60 min.) [µmol/kg] | ED50 (po, 2 h, p.o., 120 min.) [µmol/kg] | ED50 (po, 3 h, p.o., 180 min.) [µmol/kg]
COC(=O)CCCCC(=O)O[C@H]1CC[C@H]2[C@H]3Cc4ccc(O)c5c4[C@@]2(CCN3C)[C@H]1O5 [Example 4, 4,5α-Epoxy-6α-((5-methoxycarbonyl-valeryl)-oxy)-17-methyl-morphinan-3-ol acetate] |  |  |  |  | 0.039 | 0.044 | 0.073 | 0.189
CN1CC[C@]23c4c5ccc(O)c4O[C@H]2[C@@H](OCCCCOC(=O)c2ccccc2)C=C[C@H]3[C@H]1C5 [Example 4] | 0.0004 | 0.0031 | 0.0119 | 0.0217 | 0.035 | 0.046 | 0.058 | 0.069
COC(=O)c1ccc(CO[C@H]2C=C[C@H]3[C@H]4Cc5ccc(O)c6c5[C@@]3(CCN4C)[C@H]2O6)cc1 [Example 5] | 0.0008 | 0.0008 | 0.0032 | 0.0095 | 0.06 | 0.068 | 0.072 | 0.09
CN1CC[C@]23c4c5ccc(O)c4O[C@H]2[C@@H](OCCCCOC(=O)C(C)(C)C)C=C[C@H]3[C@H]1C5 [Example 6] | 0.0005 | 0.0026 | 0.0114 | 0.029 | 0.058 | 0.108 | 0.12 | 0.132
CN1CC[C@]23c4c5ccc(O)c4O[C@H]2[C@@H](OC(=O)C(C)(O)C(F)(F)F)C=C[C@H]3[C@H]1C5 (stereo partly drawn) [Example 11] | 0.0056 | 0.007 | 0.013 | 0.019 | 0.148 | 0.172 | 0.256 | 0.269
COc1ccc(CCCC(=O)O[C@H]2C=C[C@H]3[C@H]4Cc5ccc(O)c6c5[C@@]3(CCN4C)[C@H]2O6)cc1 [Example 19] | 0.002 | 0.0025 | 0.0033 | 0.0056 | 0.084 | 0.107 | 0.128 | 0.178
COC(=O)CCCCC(=O)O[C@H]1C=C[C@H]2[C@H]3Cc4ccc(O)c5c4[C@@]2(CCN3C)[C@H]1O5 [Example 20] | 0.0037 | 0.0051 | 0.011 | 0.015 | 0.118 | 0.12 | 0.17 | 0.234

From US6150524A, “Morphine derivatives with analgesic activity” (priority 1995, dated 2000)
